Laboratory results from ChEMBL document CHEMBL4699528, “Discovery and Optimization of Non-bile Acid FXR Agonists as Preclinical Candidates for the Treatment of Nonalcoholic Steatohepatitis” (J Med Chem, 2020).

How the values were obtained:
in vivo [1] = conditions: Sprague-Dawley, rat, iv, 1 mg/kg
in vivo [2] = conditions: Sprague-Dawley, rat, po, 3 mg/kg
in vivo [3] = conditions: Sprague-Dawley, rat, po, 3 mg/kg; remark: listed apart in the source
in vivo [4] = conditions: Sprague-Dawley, rat, iv, 1 mg/kg; remark: listed apart in the source
in vivo [5] = conditions: Sprague-Dawley, rat, iv, 1 mg/kg; remark: listed apart in the source
in vivo [6] = conditions: Sprague-Dawley, rat, po, 3 mg/kg; remark: listed apart in the source
in vivo [7] = conditions: Sprague-Dawley, rat, plasma, po, 3 mg/kg
in vivo [8] = conditions: Sprague-Dawley, rat, 3 mg/kg
in vivo [9] = conditions: Sprague-Dawley, rat, plasma, po, 3 mg/kg; remark: listed apart in the source
in vivo [10] = conditions: Sprague-Dawley, rat, liver, po, 3 mg/kg
in vivo [11] = conditions: Sprague-Dawley, rat, po, 3 mg/kg; remark: listed apart in the source
in vivo [12] = conditions: Sprague-Dawley, rat, po, 3 mg/kg; remark: listed apart in the source
in vivo [13] = conditions: Sprague-Dawley, rat, liver, po, 3 mg/kg; remark: listed apart in the source

Structure (SMILES) | MRT inf (in vivo [1]) [min] | Tmax (in vivo [2]) [min] | bioavailability (in vivo [3]) [%] | AUC(0-t) (in vivo [4]) [ng·h/mL] | clearance (in vivo [5]) [mL/min/kg] | AUC(0-t) (in vivo [6]) [ng·h/mL] | concentration at 1 h (in vivo [7]) [ng/mL] | Vd (in vivo [8]) [L/kg] | concentration at 4 h (in vivo [9]) [ng/mL] | concentration at 4 h (in vivo [10]) [ng/mL] | half-life (in vivo [11]) [min] | Cmax (in vivo [12]) [ng/mL] | concentration at 1 h (in vivo [13]) [ng/mL]
O=C(O)c1cc(F)c2nc(N3C4CCC3CC(F)(COCc3c(-c5ccccc5OC(F)(F)F)noc3C3CC3)C4)sc2c1 (configuration not stated) | 102 | 22.8 | 32.2 | 1930 | 8.54 | 1860 | 1140 | 0.84 | 165 | 612 | 1220 | 590 | 2340
CCn1cc(C(=O)O)c2ccc(N3CCC(F)(COCc4c(-c5c(F)cccc5Cl)noc4C4CC4)CC3)cc21 | 30.6 | 15 | 5.64 | 611 | 26.4 | 103 | 24 | 0.81 | 49 | 772 | 58.8 | 117 | 656
CCn1c(C(=O)O)cc2ccc(N3CCC(F)(COCc4c(-c5c(Cl)cccc5Cl)noc4C4CC4)CC3)cc21 |  |  |  |  |  |  | 6.3 |  | 12.6 | 186 |  |  | 72
O=C(O)c1cc(F)c2nc(N3CCC(F)(COCc4c(-c5c(F)cccc5Cl)noc4C4CC4)CC3)sc2c1 |  |  |  |  |  |  | 241 |  | 94.8 | 929 |  |  | 1550
Cn1cc(C(=O)O)c2ccc(N3CCC(OCc4c(-c5c(Cl)cccc5Cl)noc4C4CC4)CC3)cc21 [TERN-101] | 21 | 15 | 32.4 | 201 | 82.6 | 195 | 19.3 | 1.74 | 52.1 | 153 | 133 | 283 | 121
